The test system of this assay is Hepatitis C virus genotype 1. In words: Clinical study of alisporivir/peg-IFNα2a/ribavirin in treatment naïve chronic HCV genotype 1 patients, by IL28B genotype. The format is in vivo, human. From the text: An international, multicentre, randomised, double-blind, placebo-controlled, 4-arm parallel-group multiple dose study comparing three alisporivir/peg-IFNα2a/ribavirin regimens to standard of care treatment in 272 treatment naïve chronic HCV genotype 1 patients is provided.
Patients are randomized into one of 3 treatment arms (A, B and C) as described below in a 1:1:1 ratio. The randomization is stratified by baseline HCV RNA (HCV RNA<800000 IU/mL or HCV RNA≧800000 IU/mL) and BMI (BMI<25 kg/m2 or BMI≧25 kg/m2) at screening.
Alisporivir: 3 capsules of 200 mg (600 mg) alisporivir 2×/day orally for 1 week followed by 3 capsules of 200 mg alisporivir (600 mg) 1×/day for 47 weeks.
Pegylated interferon alfa 2a: 180 μg subcutaneously (s.c.) once weekly for 48 weeks
Ribavirin: 1000 mg/day (<75 kg) or 1200 mg/day (≧75 kg) orally in two divided doses for 48 weeks
Primary efficacy endpoint: proportion of patients achieving SVR 24 (HCV RNA<10 IU/mL at maximum 24 weeks after treatment end).
Genotyping of IL-28B by was carried out using the MALDI-TOF MS (matrix-assisted laser desorption/ionization time-of-flight mass spectrometer) technique which has emerged as a widely applicable method in molecular biology for fast and highly accurate DNA analysis. […]
Frequency of genetic polymorphisms of IL28B was calculated by treatment arm. […]

Here are results for 1 compound from patent US20150139950A1, “ALISPORIVIR TO TREAT HEPATITIS C VIRUS INFECTION” (Novartis AG, priority 2011, published 2015).

For `C/C=C/C[C@@H](C)[C@@H](O)[C@H]1C(=O)N[C@@H](CC)C(=O)N(C)[C@H](C)C(=O)N(CC)[C@@H](C(C)C)C(=O)N[C@@H](C(C)C)C(=O)N(C)[C@@H](CC(C)C)C(=O)N[C@@H](C)C(=O)N[C@H](C)C(=O)N(C)[C@@H](CC(C)C)C(=O)N(C)[C@@H](CC(C)C)C(=O)N(C)[C@@H](C(C)C)C(=O)N1C` [alisporivir, Alisporivir], the “treatment results of chronic Hepatitis C virus genotype 1 infection” value (patient with IL28B nonC/C genotype) is “particularly satisfactory treatment results”. Further, the “treatment of HCV” value (patients with IL28B C/C genotype) is “can also be used effectively”.
